Assay results as given in article PMC7829778, “Optimization of 1,4-Naphthoquinone Hit Compound: A Computational, Phenotypic, and In Vivo Screening against Trypanosoma cruzi” (Molecules, 2021).
Read-outs that look alike come from different tables or passages of the source.

What was measured:
[1] = Cytotoxicity in vitro assay (CellTiter Glo, ATP level); type: cell-based; conditions: African green monkey, Vero cells
Description: The cultures were maintained at 37 °C in humidified atmosphere of 5% CO2.
To evaluate the toxic effects of the 1,4-naphthoquinone derivatives on mammalian cells, Vero cells were seeded at a density of 1.5 × 10^4 cells/well in 96-well white culture plates. Twenty-four hours later, the cell cultures were incubated for 72 h at 37 °C with 1,4-naphthoquinone derivatives (series 1(a–i) and 2(a–j)) and Bz (500–1.9 µM) diluted in RPMI medium supplemented with 10% FBS. After incubation, the cell viability, measured by ATP level, was assessed by adding 20 µL/well of the CellTiter Glo (Promega Corporation, Madison, WI, EUA) solution. The luminescent signal was read on the FlexStation 3 reader (Molecular Devices, Sunnyvale, CA, USA). […] All treatments and controls were performed at low concentration (≤1%) of dimethyl sulfoxide (DMSO). At least three independent assays were performed in duplicate.

[2] = system: T. cruzi trypomastigotes Y strain; assay: Trypanocidal activity against trypomastigotes, Y strain (CellTiter Glo); type: cell-based; conditions: Trypanosoma cruzi, 24 h
Description: (§1) T. cruzi Dm28c-Luc clone, genetically modified to express firefly luciferase, and Y strain were used in the drug screening assay. Vero cells were infected with T. cruzi, Dm28c-Luc or Y strain, in a 10:1 parasites/host cell ratio and maintained at 37 °C in humidified atmosphere of 5% CO2. Trypomastigotes were harvested from the infected culture supernatant on the 4th day post-infection (dpi) followed by quantification of the number of parasites/mL in Neubauer chamber.
(§2) Screening of the compounds was performed against trypomastigotes and intracellular amastigote forms. Trypomastigotes (1 × 10^6 parasites/well), Dm28c-Luc clone and Y strain, were incubated for 24 h at 37 °C with the 1,4 naphthoquinone derivatives and Bz (0.41–100 μM) and their viability determined by the activity of the luciferase enzyme, after addition of luciferin substrate (300 μg/mL), or CellTiter Glo. The luminescent signal was detected on the FlexStation 3 reader.

[3] = system: T. cruzi trypomastigotes Dm28c-Luc; assay: Trypanocidal activity against trypomastigotes, Dm28c-Luc clone (luciferase); type: cell-based, Trypanosoma cruzi; conditions: Trypanosoma cruzi, 24 h, mean ± SD of three experiments; for IC50: read-out: Trypanocidal Effect Trypomastigotes Dm28c-Luc IC50; for IC90: read-out: Trypanocidal Effect Trypomastigotes Dm28c-Luc IC90
Description: as §1, §2

[4] = system: intracellular amastigotes of T. cruzi (Dm28c-Luc clone); assay: Luminescent screening against intracellular amastigotes in infected Vero cells; type: cell-based, Trypanosoma cruzi; conditions: infected Vero cells treated for 72 h, mean ± SD of three experiments
Description: as §1
The effect of the compounds against intracellular amastigotes was screened in 72 h T. cruzi-infected Vero cells. Briefly, Vero cells seeded (1.5 × 10^4 cells/well) on 96-well white plate infected with trypomastigotes (Dm28c-Luc) at a 10:1 multiplicity of parasites/cell. After 24 h of infection, the cultures were washed with PBS and then, treated for 72 h at 37 °C with naphthoquinone derivatives and Bz (0.41–100 µM). After treatment, luciferin (300 µg/mL) was added to the culture and the viability of the parasites was assessed by reading the luminescent signal using the FlexStation 3 reader. Controls were also performed in no-toxic concentrations of DMSO (≤1%).

[5] = Table 1, mean ± SD, read-out: Vero Cells Toxicity CC50
[6] = trypomastigotes, mean ± SD of three experiments, read-out: Trypanocidal Effect Trypomastigotes Y Strain IC50
[7] = trypomastigotes, mean ± SD of three experiments, read-out: Trypanocidal Effect Trypomastigotes Y Strain IC90

Compound | CC50 at 72 h [1, 5] | CC50 at 72 h ([1]; Table 2, read-out: CC50 Vero) | IC50 ([2]; read-out: Trypanocidal Effect Trypomastigotes Y Strain IC50, trypomastigotes, 24 h, mean ± SD of three experiments) | IC90 ([2]; read-out: Trypanocidal Effect Trypomastigotes Y Strain IC90, trypomastigotes, 24 h, mean ± SD of three experiments) | IC50 [3] | IC50 ([4]; Trypanosoma cruzi, Vero, 72 h) | IC90 ([4]; Trypanosoma cruzi) | IC50 [2, 6] | IC90 [2, 7] | IC90 [3] | IC50 [4]
COc1ccc(C(Sc2ccc(Cl)cc2)C2=C(O)C(=O)c3ccccc3C2=O)c(OC)c1OC (stereo not drawn) [Compound 1i, 2-(((4-chlorophenyl)thio)(2,3,4-trimethoxyphenyl)methyl)-3-hydroxynaphthalene-1,4-dione] | 34.2 ± 3.4 µM | 24 to 34 µM | 30.1 ± 2.3 µM | 38.9 ± 4.3 µM | 21.5 ± 2.9 µM | 15.9 ± 3.1 µM | 27.2 ± 3.4 µM | – | – | – | –
COc1ccc(C(Sc2ccc([N+](=O)[O-])cc2)C2=C(O)C(=O)c3ccccc3C2=O)cc1 (stereo not drawn) [Compound 2f, 2-Hydroxy-3-((4-methoxyphenyl)((4-nitrophenyl)thio)methyl)naphthalene-1,4-dione] | 40.6 ± 2.9 µM | 40.6 ± 2.9 µM | – | – | 6.5 ± 3.1 µM | ≤ 6.9 µM | 76.6 ± 4.9 µM | 12.5 ± 1.6 µM | 19.9 ± 3.6 µM | 11.5 ± 3.1 µM | 5.7 ± 1.4 µM
O=C1C(O)=C(C(Sc2ccc(Cl)cc2)c2ccccc2)C(=O)c2c(O)cccc21 (stereo not drawn) [Compound 1f, 3-(((4-chlorophenyl)thio)(phenyl)methyl)-2,5-dihydroxynaphthalene-1,4-dione] | 41.1 ± 2.1 µM | 41.1 ± 2.1 µM | – | – | 9.8 ± 0.7 µM | 10.1 ± 1.4 µM | 29.1 ± 2.1 µM | – | – | 28.1 ± 1.7 µM | –
COc1ccc(C(Sc2cccc(C)c2)C2=C(O)C(=O)c3ccccc3C2=O)cc1 (stereo not drawn) [Compound 2c, 2-Hydroxy-3-((4-methoxyphenyl)(m-tolylthio)methyl)naphthalene-1,4-dione] | 48.9 ± 4.7 µM | 48.9 ± 4.7 µM | – | – | 52.3 ± 6.4 µM | ~12 µM | 30.9 ± 4.7 µM | 26.2 ± 4.8 µM | 32.8 ± 5.1 µM | 84.6 ± 11.4 µM | 12.6 ± 2.4 µM
COc1ccc(C(Sc2ccc(C)cc2)C2=C(O)C(=O)c3ccccc3C2=O)cc1 (stereo not drawn) [Compound 2d, 2-Hydroxy-3-((4-methoxyphenyl)(p-tolylthio)methyl) naphthalene-1,4-dione] | 142 ± 17.6 µM | 142 ± 17.6 µM | – | – | 24.3 ± 3.4 µM | 11.9 ± 1.7 µM | 28.8 ± 4.6 µM | 31.1 ± 1.8 µM | 49.7 ± 7.1 µM | 82.2 ± 7.7 µM | –
O=C1C(O)=C(C(Sc2ccc(Cl)cc2)c2cccc(Cl)c2)C(=O)c2ccccc21 (stereo not drawn) [Compound 1b, 2-((3-chlorophenyl)((4-chlorophenyl)thio)methyl)-3-hydroxynaphthalene-1,4-dione] | 42.1 ± 1.9 µM | 42.1 ± 1.9 µM | – | – | 9.8 ± 0.5 µM | ≤ 6.9 µM | 12.7 ± 1.8 µM | 3.6 ± 1.6 µM | 8.1 ± 1.3 µM | 30.8 ± 2.9 µM | 6.9 ± 1.5 µM
CCCSC(C1=C(O)C(=O)c2ccccc2C1=O)c1ccc(OC)cc1 (stereo not drawn) [Compound 2g, 2-Hydroxy-3-((4-methoxyphenyl)(propylthio)methyl)naphthalene-1,4-dione] | 47.7 ± 5.2 µM | 47.7 ± 5.2 µM | – | – | 13.7 ± 4.1 µM | 10.3 ± 2.4 µM | 37.7 ± 4.1 µM | 12.7 ± 3.9 µM | 23.7 ± 4.1 µM | 28.7 ± 5.1 µM | –
COc1ccc(SC(C2=C(O)C(=O)c3ccccc3C2=O)c2ccc(OC)cc2)cc1 (stereo not drawn) [Compound 2i, 2-Hydroxy-3-((4-methoxyphenyl)((4-methoxyphenyl)thio)methyl)naphthalene-1,4-dione] | 44.8 ± 3.3 µM | 44.8 ± 3.3 µM | – | – | 24.1 ± 2.7 µM | 15.8 ± 3.2 µM | 34.8 ± 5.3 µM | 10.6 ± 0.4 µM | 31.6 ± 5.4 µM | 44.9 ± 6.7 µM | –
COc1ccc(C(Sc2ccc(SC)cc2)C2=C(O)C(=O)c3ccccc3C2=O)cc1 (stereo not drawn) [Compound 2j, 2-hydroxy-3-((4-methoxyphenyl)((4-(methylthio)phenyl)thio)methyl)naphthalene-1,4-dione] | 93.5 ± 6.6 µM | 93.5 ± 6.6 µM | – | – | 52.7 ± 12.6 µM | 60.2 ± 9.8 µM | > 100 µM | 89.6 ± 5.4 µM | > 100 µM | > 100 µM | –
